Data set [1] in a line: Intrinsic clearance in rat hepatocytes assessed per million cells. The data set is classed as ADME, cell-based, Hepatocyte. Particulars: read-out: CLH.
Data set [2] is described as follows: Distribution coefficient, log D of the compound in buffer/octanol solution by shake-flask method. The data set is classed as physicochemical.
Data set [3] has as its target Voltage-gated inwardly rectifying potassium channel KCNH2 (Homo sapiens, UniProt Q12809). Kind of data set: Inhibition of human ERG.
Data set [4] in a line: Intrinsic permeability in human Caco2 cells. Particulars: Caco-2. Format: ADME, cell-based.
Data set [5] in a line: Dissociation constant, pKa of the compound (morpholine). Format: physicochemical.

A word on the logD: it is the decadic logarithm of the distribution of all forms, ionised or not, between an organic phase and buffer at a given pH. What is called IC50 is the concentration needed to halve the response being measured. Lower therefore signals greater potency. Broadly, the Papp is a coefficient for how fast a substance crosses the barrier. High values mean fast passage, low ones slow passage. As a reminder, the pKa is the pH at which an ionisable group is half protonated. Read a low pKa as a stronger acid or weaker base.

Voltage-gated inwardly rectifying potassium channel KCNH2, sequence (Q12809 whole entry): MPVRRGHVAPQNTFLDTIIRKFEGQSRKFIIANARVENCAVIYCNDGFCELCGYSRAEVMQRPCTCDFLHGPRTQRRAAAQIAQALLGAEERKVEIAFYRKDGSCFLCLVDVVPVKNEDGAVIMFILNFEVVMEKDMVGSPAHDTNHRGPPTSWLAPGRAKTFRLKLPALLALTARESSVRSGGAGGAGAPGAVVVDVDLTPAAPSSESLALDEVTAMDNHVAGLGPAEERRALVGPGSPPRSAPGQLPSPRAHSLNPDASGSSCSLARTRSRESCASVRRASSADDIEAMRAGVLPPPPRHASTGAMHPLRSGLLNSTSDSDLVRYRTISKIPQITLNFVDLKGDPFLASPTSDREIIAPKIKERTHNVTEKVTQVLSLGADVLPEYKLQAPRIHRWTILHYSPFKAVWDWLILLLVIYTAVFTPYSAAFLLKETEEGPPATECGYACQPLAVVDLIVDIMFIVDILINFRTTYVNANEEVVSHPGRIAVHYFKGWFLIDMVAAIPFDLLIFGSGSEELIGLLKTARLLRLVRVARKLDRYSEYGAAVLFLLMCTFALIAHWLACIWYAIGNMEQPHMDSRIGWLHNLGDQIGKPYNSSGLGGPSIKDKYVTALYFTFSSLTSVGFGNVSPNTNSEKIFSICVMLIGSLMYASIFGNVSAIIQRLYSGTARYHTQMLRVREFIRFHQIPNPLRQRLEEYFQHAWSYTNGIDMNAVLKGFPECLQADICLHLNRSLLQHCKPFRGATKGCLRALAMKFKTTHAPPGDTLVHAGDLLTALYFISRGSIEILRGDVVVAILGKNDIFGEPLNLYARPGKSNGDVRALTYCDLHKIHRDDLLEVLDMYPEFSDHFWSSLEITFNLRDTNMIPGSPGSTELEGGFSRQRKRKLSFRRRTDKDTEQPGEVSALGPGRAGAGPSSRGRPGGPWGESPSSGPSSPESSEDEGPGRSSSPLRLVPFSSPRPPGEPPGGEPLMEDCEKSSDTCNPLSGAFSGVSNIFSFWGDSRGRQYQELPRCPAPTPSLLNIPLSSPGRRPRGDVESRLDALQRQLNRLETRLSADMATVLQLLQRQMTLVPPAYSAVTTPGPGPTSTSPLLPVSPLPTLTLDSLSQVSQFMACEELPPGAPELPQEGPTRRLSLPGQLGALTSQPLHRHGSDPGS

On to `Cc1c[nH]c2ncnc(O[C@H]3CC[C@H](N4CCO[C@H](C)C4)CC3)c12`, for which the hepatocyte CLint in data set [1] came out at 210 µL/min/1e6 cells. Besides, the logD in data set [2] was 3.1. Also, the IC50 in data set [3] was over 39.8 µM. Further, the Papp in data set [4] was determined as 27 ×10⁻⁶ cm/s.

For `Cc1c[nH]c2ncnc(O[C@H]3CC[C@H](N4C[C@H]5C[C@@H]4CO5)CC3)c12`, in data set [1], the hepatocyte CLint was determined as 110 µL/min/1e6 cells. The same molecule came in with a logD in data set [2] of 1.8. Moreover, the pKa in data set [5] is 8.1. The IC50 in data set [3] is over 39.8 µM. The same molecule showed an apparent permeability (Papp) in data set [4] of 25 ×10⁻⁶ cm/s.

Take `Cc1c[nH]c2ncnc(O[C@H]3CC[C@H](N4C[C@@H]5C[C@H]4CO5)CC3)c12`: in data set [1], the hepatocyte CLint stood at 36 µL/min/1e6 cells. The logD in data set [2] came to 2. In addition, the IC50 in data set [3] was over 39.8 µM. The Papp in data set [4] worked out at 29 ×10⁻⁶ cm/s.

For the molecule `Cc1c[nH]c2ncnc(O[C@H]3CC[C@H](N4CCOCC4)CC3)c12`, the hepatocyte CLint in data set [1] is 180 µL/min/1e6 cells. The same molecule displayed a logD in data set [2] of 2.6. In data set [5], this molecule gave a pKa of 7.5. The same molecule gave an IC50 in data set [3] of over 39.8 µM. The molecule also returned a Papp in data set [4] of 33 ×10⁻⁶ cm/s.

Turning to `Cc1c[nH]c2ncnc(O[C@H]3CC[C@H](N4CCO[C@@H](C)C4)CC3)c12`, the hepatocyte CLint in data set [1] turned out to be 140 µL/min/1e6 cells. The same molecule had a logD in data set [2] of 3. The molecule also gave an IC50 in data set [3] of 25.1 µM. This molecule also yielded a Papp in data set [4] of 31 ×10⁻⁶ cm/s.

Source of the values: ChEMBL document CHEMBL4196191, “Lowering Lipophilicity by Adding Carbon: One-Carbon Bridges of Morpholines and Piperazines” (J Med Chem, 2018).
